Experimental data as given in EP4741383A1, “COMPOUND AND USE THEREOF AS ANTI-CANCER DRUG” (Tyligand Bioscience (Shanghai) Limited, priority 2023, dated 2025).

Experiments:
MeWo = experiment: CellTiter-Glo cell proliferation inhibition, MeWo; assay type: cell-based, human; conditions: for IC50: MeWo cells, CellTiter-Glo
Method: (§1) In this study, the CellTiter-Glo® Luminescent Cell Viability Assay kit from Promega was used to evaluate the inhibitory effects of the disclosed compounds on the proliferation of cell lines KYSE520 (a human esophageal squamous cell carcinoma cell line dependent on SHP2 for growth), MeWo (a human malignant melanoma cell line), and MV4-11 (an RTK-mutant human acute monocytic leukemia cell line).
Using essentially the same experimental materials, MeWo cells (ATCC, catalog #HTB-65) were treated similarly: when thawing the cells, the cryovial was rapidly shaken in a 37 °C water bath to thaw the cells within 1 minute. The thawed cell suspension was mixed with MEM/EBSS culture medium containing 10% FBS (HyClone, catalog #SH30024.01), centrifuged at 1000 rpm for 5 minutes, and the supernatant was discarded. The cell pellet was resuspended in 5 mL of complete culture medium (MEM/EBSS medium containing 10% FBS), placed in a cell culture flask with 25 cm^2 of bottom area, and cultured in a cell culture incubator at 37 °C, 95% humidity, and 5% CO2. Cell passaging was performed when the cell confluence reached approximately 80%. During cell passaging, the old culture medium was discarded, the cells were washed once with DPBS, and 1 mL of trypsin was added to digest the cells. When the cells dispersed into single cells and detached from the bottom of the cell culture flask, 3 mL of new complete culture medium was added to stop the digestion. After thoroughly mixing the cell suspension, 1/5 of the cell suspension was retained, 5 mL of new complete culture medium was added, and after thorough mixing, the cells were placed in a cell culture flask for further culture. Cell plating was performed when the cell confluence again reached approximately 80%. During cell plating, following the cell passaging method, 1/5 of the cell suspension was retained for further culture, and the remaining 4/5 of the cell suspension was placed in a 15 mL centrifuge tube. Cell viability was determined using the trypan blue exclusion method to ensure that cell viability was above 90%. A cell suspension with a density of 2.22 × 10^4 cells/mL was prepared using MEM/EBSS culture medium containing 5% FBS. 90 µL of the cell suspension was added to a 96-well cell culture plate, resulting in a cell density of 2000 viable cells/well in the cell culture plate. A control group without cells and without compounds, containing only complete culture medium (i.e., culture medium control), and a control group without compounds but containing cells (i.e., cell control) were set up. The cell plate was cultured overnight in the cell culture incubator. First, a 10 mM stock solution of the compound (Example compound and positive control compound 11a-1) in DMSO was serially diluted with DMSO at a 3-fold dilution, down to the 9th concentration. A 10th concentration containing only DMSO (without the compound) was also prepared as a control. Then, the DMSO solutions containing different concentrations of the compound were diluted 100-fold with complete culture medium, resulting in a 1% DMSO concentration in each solution. Finally, 10 µL of each solution was added to the corresponding wells of the cell culture plate, resulting in a starting compound concentration of 10 µM, with a 3-fold dilution between adjacent concentrations, and a 0.1% DMSO concentration in the cell culture plate. The cell plates were then incubated in a cell culture incubator for 72 hours.
(§2) For endpoint detection, CellTiter-Glo reagent (Promega, catalog number #G7573, CellTiter-Glo® Luminescent Cell Viability Assay Kit) was melt and each cell plate was moved to room temperature for equilibration for 30 minutes. 75 µL (KYSE520 cells) or 50 µL (MeWo cells and MV 4-11 cells) of CellTiter-Glo was added to each well of the corresponding cell plate. The plates were shaken on a track-mounted shaker for 2 minutes to fully lyse the cells. The cell plates were kept at room temperature for 8 minutes to stabilize the luminescence signal. […]

MV4-11 = experiment: CellTiter-Glo cell proliferation inhibition, MV4-11; assay type: cell-based, human; conditions: for IC50: Homo sapiens, MV4-11 cells, 72 hours, CellTiter-Glo, read-out: IC50 (µM) M V4-11
Text: as §1
Using essentially the same experimental materials, MV4-11 cells (Nanjing Cobio Biotechnology Co., Ltd., Catalog #CBP60522) were treated similarly: when thawing the cells, the cryovial was rapidly shaken in a 37 °C water bath to thaw within 1 minute. The thawed cell suspension was mixed with IMDM culture medium containing 10% FBS (HyClone, Catalog #SH30228.01), centrifuged at 1000 rpm for 7 minutes, and the supernatant was discarded. The cell pellet was resuspended in 5 mL of complete culture medium (IMDM medium containing 10% FBS) placed in a cell culture flask with 25 cm^2 of bottom area, and cultured in a cell culture incubator at 37 °C, 95% humidity, and 5% CO2. Cell passaging was performed when the cell density reached approximately 10^6 cells/mL. During cell passaging, the old cell suspension was thoroughly mixed, 1/5 of the cell suspension was retained, and 4 mL of new complete culture medium was added. After thorough mixing, the cells were placed back in the cell culture incubator for further culture. Cell plating was performed when the cell density again reached approximately 10^6 cells/mL. During cell plating, following the cell passage method, 1/5 of the cell suspension was retained for continued culture, and the remaining 4/5 of the cell suspension was placed in a 15 mL centrifuge tube. Cell viability was determined using the trypan blue exclusion method to ensure that cell viability was above 90%. A cell suspension with a density of 1.11 × 10^5 viable cells/mL was prepared using complete culture medium. 90 µL of the cell suspension was added to a 96-well cell culture plate, resulting in a cell density of 10000 viable cells/well. A control group without cells and without compounds, containing only complete culture medium (i.e., culture medium control) and a control group without compounds but containing cells (i.e., cell control) were set up. The cell plate was incubated overnight in the cell culture incubator. First, a 10 mM stock solution of the compound (Example compound and positive control compound 11a-1) in DMSO was serially diluted with DMSO at a 3-fold dilution, down to the 9th concentrations. A 10th concentration containing only DMSO (without the compound) was also prepared as a control. Then, the DMSO solutions containing different concentrations of the compound were diluted 100-fold with complete culture medium, resulting in a DMSO concentration of 1% in each solution. Finally, 10 µL of each solution was added to the corresponding wells of a cell culture plate, resulting in an initial compound concentration of 10 µM, with a 3-fold dilution between adjacent concentrations, and a DMSO concentration of 0.1% in the cell culture plate. The cell plate was then incubated in a cell culture incubator for 72 hours.
as §2, with “signal. A multi-mode microplate reader (PerkinEImer, Envision 2105 Multimode plate Read) was used to full-wavelength scan the luminescence value of each well.” for “signal.”

Row | Compound | IC50 (MeWo; Homo sapiens, MeWo, 72 h) [µM] | IC50 (MV4-11) [µM] | IC50 (MeWo; 72 hours) [µM] | IC50 against Mewo cells, fold lower than 11a-1 (MeWo; relative to 11a-1 (3.10 µM)) [fold] | IC50 against MV4-11 cells, fold lower than 11a-1 (MV4-11; relative to 11a-1 (5.13 µM)) [fold]
1 | O=C(Nc1ccc(-c2cc3cc(F)c(-c4nnn[nH]4)cc3n2C2CCC2)cc1)C(=O)Nc1ccc(N2CCC(CCO)CC2)cc1 [Example 25] | 0.04 | 0.108 |  |  | 
2 | O=C(Nc1ccc(-c2cc3cc(F)c(-c4nnn[nH]4)cc3n2C2CCC2)cc1)C(=O)Nc1ccc(N2CCC3(CCOC3)C2)cc1 (stereo not drawn) [Example 61] | 0.115 | 3.03 |  |  | 
3 | O=C(Nc1ccc(-c2csc(CO)c2)cc1)C(=O)Nc1ccc(-c2cc3cc(F)c(-c4nnn[nH]4)cc3n2C2CCC2)cc1 [Example 1] | 0.032 | 0.097 |  |  | 
4 | O=C(Nc1ccc(-c2cc3cc(F)c(-c4nnn[nH]4)cc3n2C2CCC2)cc1)C(=O)Nc1ccc(N2CCC3(CCC(O)C3)C2)cc1 (stereo not drawn) [Example 92] | 0.098 | 0.123 |  |  | 
5 | O=C(Nc1ccc(-c2cc3cc(F)c(-c4nnn[nH]4)cc3n2C2CCC2)cc1)C(=O)Nc1ccc(N2CCC(CO)C2)cc1 (stereo not drawn) [Example 12] | 0.082 | 0.262 |  |  | 
6 | O=C(Nc1ccc(-c2cc3cc(F)c(-c4nnn[nH]4)cc3n2C2CCC2)cc1)C(=O)Nc1ccc(N2CCC3(CCC(O)CC3)CC2)cc1 [Example 108] | 0.034 | 0.115 |  |  | 
7 | O=C(Nc1ccc(-c2cc3cc(F)c(-c4nnn[nH]4)cc3n2C2CCC2)cc1)C(=O)Nc1ccc(N2CC3(CCOCC3)C2)cc1 [Example 57] | 0.096 | 0.127 |  |  | 
8 | O=C(Nc1ccc(-c2cc3cc(F)c(-c4nnn[nH]4)cc3n2C2CCC2)cc1)C(=O)Nc1ccc(N2CCC3(CC2)CC(CO)C3)cc1 [Example 96] | 0.103 | > 10 |  |  | 
9 | CC1(n2c(-c3ccc(NC(=O)C(=O)Nc4ccc(-c5cnn(C6COC6)c5)cc4)cc3)cc3cc(F)c(-c4nnn[nH]4)cc32)CC1 [Example 6] | 0.113 | 0.358 |  |  | 
10 | O=C(Nc1ccc(-c2cc3cc(F)c(-c4nnn[nH]4)cc3n2C2CCC2)cc1)C(=O)Nc1ccc(N2CC3COCC3C2)cc1 (stereo not drawn) [Example 114] | 0.078 | 0.156 |  |  | 
11 | CC1(CO)CCN(c2ccc(NC(=O)C(=O)Nc3ccc(-c4cc5cc(F)c(-c6nnn[nH]6)cc5n4C4CCC4)cc3)cc2)CC1 [Example 40] | 0.073 | 0.269 |  |  | 
12 | O=C(Nc1ccc(-c2cc3cc(F)c(-c4nnn[nH]4)cc3n2C2CCC2)cc1)C(=O)Nc1ccc(N2CCC3(CC(O)C3)C2)cc1 (stereo not drawn) [Example 89] | 0.036 | 0.095 |  |  | 
13 | CC1(n2c(-c3ccc(NC(=O)C(=O)Nc4ccc(N5CCC6(CC5)CC(CO)C6)cc4)cc3)cc3cc(F)c(-c4nnn[nH]4)cc32)CCC1 [Example 97] | 0.11 | 0.305 |  |  | 
14 | CC1(O)CCC2(CCN(c3ccc(NC(=O)C(=O)Nc4ccc(-c5cc6cc(F)c(-c7nnn[nH]7)cc6n5C5CCC5)cc4)cc3)CC2)CC1 [Example 110] | 0.086 | 0.133 |  |  | 
15 | Cn1c(-c2cccc(NC(=O)C(=O)Nc3ccc(-c4ccsc4)cc3)c2)c(I)c2cc(C(=O)O)c(O)cc21 [Example 11a-1, reference compound] | 3.1 | 5.13 |  |  | 
16 | O=C(Nc1ccc(-c2cc3cc(F)c(-c4nnn[nH]4)cc3n2C2CCC2)cc1)C(=O)Nc1ccc(N2CCC3(CCC(O)C3)CC2)cc1 (stereo not drawn) [Example 100] | 0.038 | 0.126 |  |  | 
17 | O=C(Nc1ccc(-c2cc3cc(F)c(-c4nnn[nH]4)cc3n2C2CCC2)cc1)C(=O)Nc1ccc(N2CCC3(CCOCC3)CC2)cc1 [Example 76] | 0.041 | 0.173 |  |  | 
18 | O=C(Nc1ccc(-c2cc3cc(F)c(-c4nnn[nH]4)cc3n2C2CCC2)cc1)C(=O)Nc1ccc(N2CCC(C3COC3)CC2)cc1 [Example 20] | 0.042 | > 10 |  |  | 
19 | CC1(n2c(-c3ccc(NC(=O)C(=O)Nc4ccc(N5CCC6(CCOC6)CC5)cc4)cc3)cc3cc(F)c(-c4nnn[nH]4)cc32)CCC1 [Example 68] | 0.06 | 0.06 | 0.031 | 100 | 85
20 | CC1(n2c(-c3ccc(NC(=O)C(=O)Nc4ccc(N5CCC6(CCOCC6)CC5)cc4)cc3)cc3cc(F)c(-c4nnn[nH]4)cc32)CCC1 [Example 77] | 0.034 | 0.094 |  |  | 
21 | CC1(O)CC2(CCN(c3ccc(NC(=O)C(=O)Nc4ccc(-c5cc6cc(F)c(-c7nnn[nH]7)cc6n5C5CCC5)cc4)cc3)CC2)C1 [Example 94] | 0.041 | 0.237 |  |  | 
